Source: ChEMBL document CHEMBL1201862, “PubChem BioAssay data set” (2004)
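Values below derive from 48-hour exposures of cells grown in 96-well plates, with endpoints linearly interpolated between the two concentrations bracketing the appropriate inhibition level. GI50 is the concentration that inhibits growth by half.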 Active and inactive are the calls of the source. Rule as the data show it: active = GI50 up to about 1.1 µM and inactive = higher.

Assays:
Assay in all cases: growth of human tumour cells (NCI), 48 h
DMS-114 = tested on: DMS-114
DMS-273 = tested on: DMS-273
HOP-18 = tested on: HOP-18
KM-20L2 = tested on: KM-20L2
LXFL 529 = tested on: LXFL 529
M19-MEL = tested on: M19-MEL
RXF 631 = tested on: RXF 631
SNB-78 = tested on: SNB-78
XF498 = tested on: XF498

SMILES | GI50 (DMS-114) | GI50 (DMS-273) | GI50 (HOP-18) | GI50 (KM-20L2) | GI50 (LXFL 529) | GI50 (M19-MEL) | GI50 (RXF 631) | GI50 (SNB-78) | GI50 (XF498)
CC1(C)CC(Nc2ccc(Nc3ccccc3)cc2)CC(C)(C)N1 | 21.2 µM (inactive) | 41.7 µM (inactive) | > 100 µM (inactive) | 26.1 µM (inactive) | 25.1 µM (inactive) | 35.2 µM (inactive) | 18.6 µM (inactive) | 66.2 µM (inactive) | 22.5 µM (inactive)
CCOC(=O)C1C(c2ccc(Cl)cc2Cl)NC(c2ccc(C)cc2)C(C(=O)OC)S1(=O)=O (configuration not stated) |  | 85.5 µM (inactive) |  |  | 54.6 µM (inactive) | 53.1 µM (inactive) |  | > 100 µM (inactive) | 3.33 µM (inactive)
C=C1C(=O)OC2C/C(C)=C/CC/C(C)=C/CCC3(COC(C)=O)OC3CC12 (configuration not stated) | 4.09 µM (inactive) | 3.87 µM (inactive) | 11.2 µM (inactive) | 6.93 µM (inactive) | 2.77 µM (inactive) | 13.1 µM (inactive) |  | 7.71 µM (inactive) | 7.11 µM (inactive)
Cc1cc(Cl)ccc1NC(=O)CCCC(=O)C1C/C(=N/O)CC/C1=N\O (configuration not stated) | > 100 µM (inactive) | > 100 µM (inactive) | > 100 µM (inactive) | > 100 µM (inactive) | > 100 µM (inactive) | > 100 µM (inactive) | > 100 µM (inactive) | > 100 µM (inactive) | > 100 µM (inactive)
C#CC(C)(C)Oc1cc(O)c2c(=O)c3ccccc3n(C)c2c1 | > 100 µM (inactive) | 23.1 µM (inactive) | > 100 µM (inactive) | > 100 µM (inactive) | > 100 µM (inactive) |  | > 100 µM (inactive) | > 100 µM (inactive) | > 100 µM (inactive)
O=C(NCCCCCCCCCCCCNC(=O)c1cccc2ccccc12)c1cccc2ccccc12 | > 100 µM (inactive) | > 100 µM (inactive) | > 61.1 µM (inactive) | > 100 µM (inactive) | > 91.4 µM (inactive) | > 100 µM (inactive) | 31.2 µM (inactive) | > 47 µM (inactive) | > 47.8 µM (inactive)
N#Cc1cccc2c1Nc1ccccc1S2 | 81.1 µM (inactive) | > 100 µM (inactive) | 37.3 µM (inactive) | > 100 µM (inactive) |  | > 100 µM (inactive) |  | 67.9 µM (inactive) | 41.8 µM (inactive)
Cc1ccc(S(=O)(=O)NC(=O)C#CCOC2CCCCO2)cc1 (configuration not stated) | > 100 µM (inactive) | > 100 µM (inactive) | > 100 µM (inactive) | > 100 µM (inactive) | > 100 µM (inactive) | > 100 µM (inactive) | > 100 µM (inactive) |  | > 100 µM (inactive)
COc1cc(Nc2cnc3cc(C(F)(F)F)ccc3n2)cc(OC)c1OC |  | > 100 µM (inactive) | > 100 µM (inactive) | > 100 µM (inactive) | > 100 µM (inactive) | > 100 µM (inactive) | > 100 µM (inactive) | > 100 µM (inactive) | > 100 µM (inactive)
O=C(Nc1ccccc1C(=O)NC(=O)c1ccccc1NC(=O)c1ccccc1)c1ccccc1 | 2.17 µM (inactive) | 2.29 µM (inactive) | 4.49 µM (inactive) | 3.15 µM (inactive) |  |  |  |  | 1.69 µM (inactive)
COc1ccccc1NC(=O)NS(=O)(=O)c1ccccc1 | > 100 µM (inactive) | > 100 µM (inactive) | 48.2 µM (inactive) | > 100 µM (inactive) | > 100 µM (inactive) | > 100 µM (inactive) |  | > 100 µM (inactive) | 
CC(C)N(C(=O)C12C3C4C1C1C2C3C41C(=O)C(C)(C)C)C(C)C (configuration not stated) | 52.5 µM (inactive) | > 100 µM (inactive) |  | > 100 µM (inactive) | > 100 µM (inactive) | > 100 µM (inactive) |  | > 100 µM (inactive) | > 100 µM (inactive)
CC1=C(C(=O)NCc2ccccc2)C(/C=C/c2ccccc2)C(C(=O)NCc2ccccc2)=C(C)N1 | > 100 µM (inactive) | > 100 µM (inactive) | > 100 µM (inactive) | > 100 µM (inactive) | > 100 µM (inactive) | > 100 µM (inactive) |  | > 100 µM (inactive) | > 100 µM (inactive)
COc1c(I)c(OC)c2c(c1I)O[C@@H]1OCC[C@H]21 | 26.5 µM (inactive) | 23.1 µM (inactive) | 24.3 µM (inactive) | 65.3 µM (inactive) | 26.9 µM (inactive) | 23.8 µM (inactive) | 29.9 µM (inactive) | 57.9 µM (inactive) | 30.3 µM (inactive)
O=[N+]([O-])c1ccc(N=P(c2ccccc2)(c2ccccc2)c2ccccc2)n2nnnc12 | 72.3 µM (inactive) | > 100 µM (inactive) | > 100 µM (inactive) | > 100 µM (inactive) | 48.3 µM (inactive) | 82 µM (inactive) |  |  | 32.7 µM (inactive)
Cc1cccc(C)c1NC(=O)C(=O)Nn1c(NN)nc2ccccc2c1=O | > 100 µM (inactive) | > 100 µM (inactive) | > 100 µM (inactive) | > 100 µM (inactive) | > 100 µM (inactive) | > 100 µM (inactive) | > 100 µM (inactive) | > 100 µM (inactive) | 
CCCCOC(=O)NC(=O)c1cn(CCCOC(=O)CCCCCCCCC(=O)OCCCn2cc(C(=O)NC(=O)OCCCC)c(=O)[nH]c2=O)c(=O)[nH]c1=O | > 100 µM (inactive) |  | 24.9 µM (inactive) | > 100 µM (inactive) | > 100 µM (inactive) | > 100 µM (inactive) | 98.6 µM (inactive) |  | > 100 µM (inactive)
Cc1ccccc1-n1c(CCl)nc2ccc(Br)cc2c1=O | 7.46 µM (inactive) | 26 µM (inactive) | 22.9 µM (inactive) | 17.8 µM (inactive) | 0.887 µM (active) | 6.15 µM (inactive) | 16.9 µM (inactive) | 18.2 µM (inactive) | 
N#Cc1nc(Nc2ccc([N+](=O)[O-])cc2)sc1N |  | 21.2 µM (inactive) | 61.2 µM (inactive) | 23.9 µM (inactive) | 8.69 µM (inactive) | 25.2 µM (inactive) | 11.4 µM (inactive) | 32.2 µM (inactive) | 17.3 µM (inactive)
COc1cccc2c1C(=O)c1c(O)c3c(c(O)c1C2=O)C[C@@](O)(/C(C)=N\O)C[C@@H]3OC1CC(N)C(O)C(C)O1 (some centres not stated) | 0.371 µM (active) | 0.454 µM (active) | 2.18 µM (inactive) | 3 µM (inactive) | 0.508 µM (active) | 0.743 µM (active) | 2.24 µM (inactive) | 1.28 µM (inactive) | 0.21 µM (active)
O=C1C2C3C=C4c5ccccc5N(c5ccccc5)C4([C@@H]2C(=O)N1c1ccc(F)cc1)[C@H]1C(=O)N(c2ccc(F)cc2)C(=O)[C@@H]31 (some centres not stated) | > 100 µM (inactive) |  | > 100 µM (inactive) |  |  | > 100 µM (inactive) |  | 82.2 µM (inactive) | > 100 µM (inactive)
C=C1CC2OC(=O)C(=C)C2C(O)C2C(=C)CCC12 (configuration not stated) | 4.55 µM (inactive) | 8.2 µM (inactive) | 15.9 µM (inactive) |  | 4.33 µM (inactive) | 5.19 µM (inactive) |  | 6.56 µM (inactive) | 
CC(=O)NCCCCCCNC(C)=O [HEXAMETHYLENEBISACETAMIDE] | 3860 µM (inactive) | 3600 µM (inactive) | 7530 µM (inactive) | 5220 µM (inactive) |  | 5750 µM (inactive) |  | 6590 µM (inactive) | 3180 µM (inactive)
